In patent US20230322815A1, “NOVEL COMPOUNDS AND THERAPEUTIC USES THEREOF” (University of Huddersfield, priority 2020, published 2023):

Experiments:
[1] = Direct ATP hydrolysis by the complex (mass spectroscopy); conditions: ATP incubated with complex alone
Excerpt: There are several potential mechanisms which could lead the observed kinase inhibition ‘readout’ of this screen including, i) direct ATP hydrolysis by the complex(es) and differing Km of the kinases for ATP, and, ii) dephosphorylation of the peptide substrate by the phosphatase activity of the Zn^2+ complex resulting in cycles of peptide phosphorylation by active recombinant enzyme and dephosphorylation by the complex.

[2] = tested on: recombinant AMPK (AMPKα p-T172); assay: Western blot of purified recombinant kinase after exposure to complex; assay type: biochemical, human; conditions: 50 μM complex, 4 hours, in the presence of ATP
Method: FIG. 10. Western blot analysis of purified recombinant Src and AMPK following exposure to [L2Zn3]^6+ and [L2Cu3]^6+. Purified enzymes were incubated with complexes (50 μM) for 4 hours in the presence of ATP prior to analysis.
Protein lysates and recombinant proteins were resolved on 15% SDS polyacrylamide gels. Proteins were electroblotted onto nitrocellulose membrane by wet transfer in 1×Tris Glycine buffer (Biorad) at 35 mA overnight at room temperature (Allison et al., 2014). After blocking of membranes, these were incubated with primary antibody overnight at 4° C. before addition of rabbit or mouse secondary antibody (HRP-conjugated) for 1 h at room temperature and development of blots by enhanced chemiluminescence. […] Quantification of signals was performed by densitometry using Image J software.
To investigate these hypotheses further, regulatory phospho-amino acids of two key kinases identified by the kinase screen, AMPK and Src, were analysed following incubation of the recombinant kinases with Zn^2+ or Cu^2+ complexes.

[3] = tested on: HCT116 p53^−/− cancer cells; assay: Autophagy (CYTO-ID staining, confocal); assay type: cell-based, human; conditions: 3.125 μM, 40 h
Method: (§1) FIG. 17. The effects of [L2Cu3]^6+, [L2Zn3]^6+ and [L2Mn3]^6+ on cellular vacuole formation and autophagy in the HCT116 p53^−/− cancer cells. Representative confocal images are shown of HCT116 p53^−/− cancer cells following 40 h treatment with vehicle control or 3.125 μM [L2Cu3]^6+, [L2Zn3]^6+, or [L2Mn3]^6+.
(§2) Autophagy studies: The effects of 3.125 μM [L2Cu3]^6+, [L2Zn3]^6+ and [L2Mn3]^6+ treatments (40 h) on the induction of cellular vacuoles and autophagy in the HCT116 p53^−/−, HCT116 p53^+/+ and ARPE19 cells are presented in FIGS. 17-19 with representative cell images shown. […] In the ARPE19 cells, levels of autophagy were low with all treatments and similar to basal levels in control-treated cells (FIG. 19).

[4] = tested on: chick embryo; assay: Embryonic toxicity, H460 in ovo study; assay type: in vivo, chick (White Leghorn); conditions: for embryo tolerability: all doses tested, no statistically significant difference to solvent control; for % Alive / % Dead / Alive (embryos at E18) / Dead (embryos at E18): H460 study
Method: 10^6 tumor cells (H460, HT29 or HCT116) were grafted onto the upper chorioallantoic membrane (CAM) of the developing chick embryo on embryonic day 9 (E9). Access to the upper CAM was through a small hole drilled through the eggshell of fertilized White Leghorn eggs (into the air sac) on E9 (15 eggs per experimental group).
100 μl of freshly prepared experimental compound, vehicle control or standard-of-care (SoC) drug at their working concentrations were pipetted onto the tumor graft at E11, E13, E15 and E17. On day E18, the upper CAM (with tumor) was removed, washed by PBS buffer and then directly transferred in PFA (fixation for 48 hrs). After that, tumors were carefully cut away from normal CAM tissue and weighed.
Embryonic viability was checked daily. The number of dead embryos was also counted on E18, to evaluate treatment-induced embryo toxicity.

[5] = Phosphatase activity: hydrolysis of 4-nitrophenyl phosphate; conditions: following mixing
Excerpt: Only [L2Zn3(PO4)]^3+ was observed, coupled with a rapid yellowing of the solution due to the formation of 4-nitrophenolate.
The rate of substrate hydrolysis is also dependent upon the metal used in the self-assembly process.

[6] = tested on: HCT116 p53^+/+ cancer cells; assay: Autophagy (CYTO-ID staining, confocal); assay type: cell-based, human; conditions: 3.125 μM, 40 h
Method: as §1, with “18.” for “17.”, “p53^+/+” for “p53^−/−”
as §2

[7] = tested on: ARPE19 non-cancer cells; assay: Cellular ATP levels; assay type: cell-based, human; conditions: 100 μM, 20 h
Method: FIG. 20. The effects of [L2Cu3]^6+, [L2Zn3]^6+ and [L2Mn3]^6+ on cellular ATP levels in the ARPE19 non-cancer and HCT116 p53^+/+ cancer cells. The effects of 20 h treatment with the indicated concentrations of [L2Cu3]^6+, [L2Zn3]^6+, or [L2Mn3]^6+ on total cellular levels of ATP compared to levels in vehicle control-treated ARPE19 or HCT116^+/+ cells. n=3 biological repeats, students t-test (p values).
Cellular ATP studies: The effects of 20 h treatment with a range of different concentrations of [L2Cu3]^6+, [L2Zn3]^6+ and [L2Mn3]^6+ on total cellular ATP levels in HCT116 p53^+/+ and ARPE19 cells are presented in FIG. 20. Differential effects are observed depending on the metal in the complex, with [L2Mn3]^6+ having the most profound effects on both the HCT116 p53^+/+ cancer and ARPE19 non-cancer cells. 6.25 μM [L2Mn3]^6+ treatment for 20 h reduced ATP levels in the HCT116 p53^+/+ cancer cells to <50% with ATP levels declining less in the ARPE19 non-cancer cells but reaching ˜40% with 100 μM [L2Mn3]^6+ treatment. […] Effects of [L2Cu3]^6+ on ATP levels was much less, with ATP levels in the HCT116 cells reduced to <50% only at the highest concentration of 100 μM.

[8] = dose [1]: L2Zn3 54 μM, L2Cu3 42 μM
[9] = dose [2]: L2Zn3 108 μM, L2Cu3 84 μM
[10] = dose [3]: L2Zn3 216 μM, L2Cu3 168 μM

Row | SMILES | hydrolysis of ATP [1] | AMPKα p-T172 levels by immunoblotting [2] | induction of autophagy [3] | embryo tolerability [4] | % Alive [4, 8] | % Dead [4, 8] | Alive (embryos at E18) [4, 8] | Dead (embryos at E18) [4, 8] | % Alive [4, 9] | % Dead [4, 9] | Alive (embryos at E18) [4, 9] | Dead (embryos at E18) [4, 9] | % Alive [4, 10] | % Dead [4, 10] | Alive (embryos at E18) [4, 10] | Dead (embryos at E18) [4, 10] | hydrolysis of 4-nitrophenyl phosphate by 31P NMR [5] | induction of autophagy [6] | ATP levels compared to vehicle control [7]
1 | [Cu+2].[Cu+2].[Cu+2].c1ccc(-c2csc(NCCN(CCNc3nc(-c4ccccn4)cs3)CCNc3nc(-c4ccccn4)cs3)n2)nc1.c1ccc(-c2csc(NCCN(CCNc3nc(-c4ccccn4)cs3)CCNc3nc(-c4ccccn4)cs3)n2)nc1 [[L2Cu3]^6+] | little or no hydrolysis of ATP | significantly reduced p-T172 levels | no or little autophagy | well tolerated | 85.71% | 14.29% | 12 | 2 | 92.86% | 7.14% | 13 | 1 | 85.71% | 14.29% | 12 | 2 |  |  | 
2 | [Zn+2].[Zn+2].[Zn+2].c1ccc(-c2csc(NCCN(CCNc3nc(-c4ccccn4)cs3)CCNc3nc(-c4ccccn4)cs3)n2)nc1.c1ccc(-c2csc(NCCN(CCNc3nc(-c4ccccn4)cs3)CCNc3nc(-c4ccccn4)cs3)n2)nc1 [[L2Zn3]^6+] | little or no hydrolysis of ATP | significantly reduced p-T172 levels |  | well tolerated | 92.86% | 7.14% | 13 | 1 | 76.92% | 23.08% | 10 | 3 | 90.91% | 9.09% | 10 | 1 | almost immediate hydrolysis | barely detectable | > 70%
